What was measured:
human ALX receptor = biological target: T1, human ALX receptor (Homo sapiens, UniProt P25090); assay: Intracellular calcium measurements (FLIPR), agonistic activity in HEK293-hALXR-Gα16 cells; format: cell-based; details: Fluo-4 calcium FLIPR, normalized to WKYMVm 10 nM
T1 construct: expressed in transfected cells; host or cells: HEK293 (HEK293-hALXR-Gα16)
T1 sequence (P25090 1-351): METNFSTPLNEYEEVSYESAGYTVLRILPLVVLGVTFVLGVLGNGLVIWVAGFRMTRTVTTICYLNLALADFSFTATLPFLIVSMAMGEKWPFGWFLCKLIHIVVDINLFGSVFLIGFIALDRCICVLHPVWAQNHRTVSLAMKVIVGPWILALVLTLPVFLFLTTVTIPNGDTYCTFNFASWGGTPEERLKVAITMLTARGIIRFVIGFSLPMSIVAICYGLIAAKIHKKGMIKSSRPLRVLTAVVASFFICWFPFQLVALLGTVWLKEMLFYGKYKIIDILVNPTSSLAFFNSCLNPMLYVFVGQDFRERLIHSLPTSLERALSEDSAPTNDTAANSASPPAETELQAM
How it was run: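 HEK293 cells expressing hALXR and Gα16 were loaded with 1 μM Fluo-4 AM and 20 mM HEPES for 60 min at 37°C, then exposed to serially diluted compound. FLIPR fluorescence was read at ex 488/em 540 nm. Baseline-subtracted peak responses were normalized to 10 nM WKYMVm.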

human FPRL2 = biological target: T2, human FPRL2 (Homo sapiens, UniProt P25089); assay: Intracellular calcium measurements (FLIPR), agonistic activity in HEK293-hFPRL2-Gα16 cells; format: cell-based; details: Fluo-4 calcium FLIPR, normalized to GLY14-Humanin 100 nM
T2 construct: expressed in transfected cells; host or cells: HEK293 (HEK293-hFPRL2-Gα16)
T2 sequence (P25089 1-353): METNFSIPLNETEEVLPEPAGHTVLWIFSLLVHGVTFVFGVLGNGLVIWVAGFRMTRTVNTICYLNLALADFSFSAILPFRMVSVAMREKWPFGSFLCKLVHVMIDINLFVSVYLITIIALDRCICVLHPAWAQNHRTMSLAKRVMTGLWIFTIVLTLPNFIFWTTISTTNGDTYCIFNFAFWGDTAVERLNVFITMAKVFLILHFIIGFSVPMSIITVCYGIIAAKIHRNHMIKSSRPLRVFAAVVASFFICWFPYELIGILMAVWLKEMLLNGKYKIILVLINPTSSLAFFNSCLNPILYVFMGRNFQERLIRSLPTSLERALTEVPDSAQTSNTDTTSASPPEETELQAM
How it was run: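 Peak values after baseline subtraction are expressed relative to 100 nM Gly14-Humanin; compounds diluted in assay buffer from 10 mM DMSO stocks.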

Row | Structure (SMILES) | EC50 (human ALX receptor) | EC50 (human FPRL2)
1 | O=C(NCCN1CCNC1=O)[C@H]1[C@H](C(=O)NCc2ccc(Br)cc2)[C@@H]2C=C[C@H]1C21CC1 (racemic) [Example 275, (5R*)—N^5-(4-Bromophenyl-methyl)-(6R*)—N^6-((2-imidazolidin-2-on)-1-yl-ethyl)-(4S*,7R*)-[4,7-ethenylene-spiro[2.4]heptane]-5,6-dicarboxamide] | 181 nM | 7040 nM
2 | COCCNC(=O)[C@H]1[C@H](C(=O)Nc2ncc(Br)s2)[C@@H]2C=C[C@H]1C21CC1 (racemic) [Example 276, (5R*)—N^5-(5-Bromothiazol-2-yl)-(6R*)—N^6-(2-methoxy-ethyl)-(4S*,7R*)-[4,7-ethenylene-spiro[2.4]heptane]-5,6-dicarboxamide] | 44 nM | > 25000 nM
3 | CN(C)CCCNC(=O)[C@H]1[C@H](C(=O)Nc2ncc(Br)s2)[C@@H]2C=C[C@H]1C21CC1 (racemic) [Example 277, (5R*)—N^5-(5-Bromothiazol-2-yl)-(6R*)—N^6-(3-dimethylamino-propyl)-(4S*,7R*)-[4,7-ethenylene-spiro[2.4]heptane]-5,6-dicarboxamide] | 61 nM | 2010 nM
4 | CC(=O)c1csc(CNC(=O)[C@H]2[C@H](C(=O)NCCCN)[C@H]3C=C[C@@H]2C32CC2)n1 (racemic) [Example 299, (5R*)—N^5-(4-Acetyl-thiazol-2-yl-methyl)-(6R*)—N^6-(3-amino-propyl)-(4S*,7R*)-[4,7-ethenylene-spiro[2.4]heptane]-5,6-dicarboxamide] | 273 nM | 359 nM
5 | CC(=O)c1csc(CNC(=O)[C@H]2[C@H](C(=O)NCC3CCNCC3)[C@H]3C=C[C@@H]2C32CC2)n1 (racemic) [Example 300, (5R*)—N^5-(4-Acetyl-thiazol-2-yl-methyl)-(6R*)—N^6-(piperidin-4-yl-methyl)-(4S*,7R*)-[4,7-ethenylene-spiro[2.4]heptane]-5,6-dicarboxamide] | 384 nM | 1820 nM
6 | CNCCNC(=O)[C@H]1[C@H](C(=O)Nc2ncc(Br)s2)[C@@H]2C=C[C@H]1C21CC1 (racemic) [Example 301, (5R*)—N^5-(5-Bromo-thiazol-2-yl)-(6R*)—N^6-(2-methylamino-ethyl)-(4S*,7R*)-[4,7-ethenylene-spiro[2.4]heptane]-5,6-dicarboxamide] | 98 nM | 2700 nM
7 | NCCCCCNC(=O)[C@H]1[C@H](C(=O)Nc2ncc(Br)s2)[C@@H]2C=C[C@H]1C21CC1 (racemic) [Example 302, (5R*)—N^5-(5-Bromo-thiazol-2-yl)-(6R*)—N^6-(5-amino-pentyl)-(4S*,7R*)-[4,7-ethenylene-spiro[2.4]heptane]-5,6-dicarboxamide] | 1.3 nM | 543 nM
8 | NCc1ccc(CNC(=O)[C@H]2[C@H](C(=O)Nc3ncc(Br)s3)[C@@H]3C=C[C@H]2C32CC2)cc1 (racemic) [Example 303, (5R*)—N^5-(5-Bromo-thiazol-2-yl)-(6R*)—N^6-(4-(aminomethyl)phenyl-methyl)-(4S*,7R*)-[4,7-ethenylene-spiro[2.4]heptane]-5,6-dicarboxamide] | 45 nM | 1340 nM
9 | CC(C)(CN)CNC(=O)[C@H]1[C@H](C(=O)Nc2ncc(Br)s2)[C@@H]2C=C[C@H]1C21CC1 (racemic) [Example 304, (5R*)—N^5-(5-Bromo-thiazol-2-yl)-(6R*)—N^6-(2,2-dimethyl-3-amino-propyl)-(4S*,7R*)-[4,7-ethenylene-spiro[2.4]heptane]-5,6-dicarboxamide] | 12 nM | 1630 nM
10 | CNCCNC(=O)[C@H]1[C@H](C(=O)NCc2ccc(Br)cc2)[C@@H]2C=C[C@H]1C21CC1 (racemic) [Example 305, (5R*)—N^5-(4-Bromophenyl-methyl)-(6R*)—N^6-(2-methylamino-ethyl)-(4S*,7R*)-[4,7-ethenylene-spiro[2.4]heptane]-5,6-dicarboxamide] | 350 nM | 2050 nM

Now from value to compound:

Row | EC50 (human ALX receptor) | EC50 (human FPRL2) | Structure (SMILES)
11 | 23 nM | 2760 nM | O=C(NC1CCNCC1)[C@H]1[C@H](C(=O)NCc2ccc(Br)cc2)[C@@H]2C=C[C@H]1C21CC1 (racemic) [Example 306, (5R*)—N^5-(4-Bromophenyl-methyl)-(6R*)—N^6-(piperidin-4-yl)-(4S*,7R*)-[4,7-ethenylene-spiro[2.4]heptane]-5,6-dicarboxamide]
12 | 76 nM | 2640 nM | NCCCNC(=O)[C@H]1[C@H](C(=O)NCc2ccc(Br)cc2)[C@@H]2C=C[C@H]1C21CC1 (racemic) [Example 307, (5R*)—N^5-(4-Bromophenyl-methyl)-(6R*)—N^6-(3-amino-propyl)-(4S*,7R*)-[4,7-ethenylene-spiro[2.4]heptane]-5,6-dicarboxamide]
13 | 59 nM | 493 nM | NCc1cccc(CNC(=O)[C@H]2[C@H](C(=O)NCc3ccc(Br)cc3)[C@@H]3C=C[C@H]2C32CC2)c1 (racemic) [Example 308, (5R*)—N^5-(4-Bromophenyl-methyl)-(6R*)—N^6-(3-(aminomethyl)phenyl-methyl)-(4S*,7R*)-[4,7-ethenylene-spiro[2.4]heptane]-5,6-dicarboxamide]
14 | 367 nM | 1340 nM | NCc1ccc(CNC(=O)[C@H]2[C@H](C(=O)NCc3ccc(Br)cc3)[C@@H]3C=C[C@H]2C32CC2)cc1 (racemic) [Example 309, (5R*)—N^5-(4-Bromophenyl-methyl)-(6R*)—N^6-(4-(aminomethyl)phenyl-methyl)-(4S*,7R*)-[4,7-ethenylene-spiro[2.4]heptane]-5,6-dicarboxamide]
15 | 26 nM | 466 nM | CC(C)(CN)CNC(=O)[C@H]1[C@H](C(=O)NCc2ccc(Br)cc2)[C@@H]2C=C[C@H]1C21CC1 (racemic) [Example 310, (5R*)—N^5-(4-Bromophenyl-methyl)-(6R*)—N^6-(2,2-dimethyl-3-amino-propyl)-(4S*,7R*)-[4,7-ethenylene-spiro[2.4]heptane]-5,6-dicarboxamide]
16 | 54 nM | 1170 nM | O=C(NCC1CCNCC1)[C@H]1[C@H](C(=O)NCc2ccc(Br)cc2)[C@@H]2C=C[C@H]1C21CC1 (racemic) [Example 311, (5R*)—N^5-(4-Bromophenyl-methyl)-(6R*)—N^6-(piperidin-4-yl-methyl)-(4S*,7R*)-[4,7-ethenylene-spiro[2.4]heptane]-5,6-dicarboxamide]
17 | 1740 nM | 165 nM | O=C(NCCCCN1CCCC1)[C@H]1[C@H](C(=O)NCCC2=CCCCC2)[C@@H]2C=C[C@H]1C21CC1 (racemic) [Example 341, (5R*)—N^5-(2-(Cyclohexen-1-yl)ethyl)-(6R*)—N^6-(4-pyrrolidino-butyl)-(4S*,7R*)-[4,7-ethenylene-spiro[2.4]heptane]-5,6-dicarboxamide]
18 | > 2390 nM | 885 nM | O=C(NCCCCN1CCCC1)[C@H]1[C@H](C(=O)NCCc2ccccn2)[C@@H]2C=C[C@H]1C21CC1 (racemic) [Example 343, (5R*)—N^5-(2-(Pyridin-2-yl)ethyl)-(6R*)—N^6-(4-pyrrolidino-butyl)-(4S*,7R*)-[4,7-ethenylene-spiro[2.4]heptane]-5,6-dicarboxamide]
19 | 7850 nM | 414 nM | CC(=O)c1csc(NC(=O)[C@H]2[C@H](C(=O)NCCCCN3CCCC3)[C@H]3C=C[C@@H]2C32CC2)n1 (racemic) [Example 344, (5R*)—N^5-(4-Acetyl-thiazol-2-yl)-(6R*)—N^6-(4-pyrrolidino-butyl)-(4S*,7R*)-[4,7-ethenylene-spiro[2.4]heptane]-5,6-dicarboxamide]
20 | > 25000 nM | 734 nM | O=C(NCCCCN1CCCC1)[C@H]1[C@H](C(=O)Nc2nc(C(F)(F)F)cs2)[C@@H]2C=C[C@H]1C21CC1 (racemic) [Example 345, (5R*)—N^5-(4-Trifluoromethyl-thiazol-2-yl)-(6R*)—N^6-(4-pyrrolidino-butyl)-(4S*,7R*)-[4,7-ethenylene-spiro[2.4]heptane]-5,6-dicarboxamide]
21 | 1540 nM | 508 nM | O=C(NCCCCN1CCCC1)[C@H]1[C@H](C(=O)NCc2c(F)cc(F)cc2F)[C@@H]2C=C[C@H]1C21CC1 (racemic) [Example 346, (5R*)—N^5-(2,4,6-Trifluorophenyl-methyl)-(6R*)—N^6-(4-pyrrolidino-butyl)-(4S*,7R*)-[4,7-ethenylene-spiro[2.4]heptane]-5,6-dicarboxamide]
